{"source": "patent US11285130B2", "about": "“Treatment of mitochondrial diseases” (Khondrion IP B.V., priority 2017, dated 2022)", "key": {"[1]": {"target": "CYP3A4 (Homo sapiens, UniProt P08684)", "sequence (P08684 whole entry)": "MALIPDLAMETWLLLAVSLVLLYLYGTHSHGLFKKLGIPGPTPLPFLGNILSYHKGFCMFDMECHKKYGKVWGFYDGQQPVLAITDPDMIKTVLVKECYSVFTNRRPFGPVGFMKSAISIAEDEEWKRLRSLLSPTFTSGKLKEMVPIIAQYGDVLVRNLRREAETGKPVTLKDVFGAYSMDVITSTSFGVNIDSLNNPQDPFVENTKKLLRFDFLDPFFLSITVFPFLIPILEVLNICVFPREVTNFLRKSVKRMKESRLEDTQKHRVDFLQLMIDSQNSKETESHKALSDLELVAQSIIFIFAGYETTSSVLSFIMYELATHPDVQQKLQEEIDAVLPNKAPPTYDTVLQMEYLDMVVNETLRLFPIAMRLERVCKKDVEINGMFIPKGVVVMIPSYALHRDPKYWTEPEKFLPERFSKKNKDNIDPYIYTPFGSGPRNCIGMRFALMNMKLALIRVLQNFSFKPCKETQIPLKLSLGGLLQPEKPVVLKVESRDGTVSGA", "assay": "In vitro metabolism", "format": "in vitro ADME"}, "[2]": {"test_system": "primary human fibroblasts from patients with MELAS", "assay": "Oxidative stress-induced cell death (BSO) assay, MELAS patient fibroblasts", "format": "cell-based", "details": "Homo sapiens, Fibroblast; fibroblasts derived from MELAS patients, 100 μM BSO; unit as printed for KH176; read-out: EC50, protection from oxidative stress-induced cell death", "source_text": "(§1) To determine the effective concentration of the compounds (the concentrations that protect patient cells against oxidative stress-induced cell death) the applicant established an assay using stressed primary human fibroblasts from patients with Leigh syndrome, MELAS or LHON diseases. Utilising the inherent oxidative stress of fibroblasts from patients with mitochondrial disease, their oxidative burden was further increased by depleting cellular glutathione with an inhibitor of glutathione synthesis, L-buthionine-(S,R)-sulfoximine (BSO). […] Cells were seeded at a density of 3000 cells/well in a 96-well format and incubated with increasing concentrations of compounds in combination with BSO (100 μM, Sigma-aldrich). One day after treatment, the cells were washed twice and stained with a solution of 5 μM calcein-AM (Life technologies C3100MP) during 25 min in 199 medium without phenol red (Life technologies, 11043-023) at room temperature. After 2 washes with PBS (Phosphate buffered saline) the plate was read on a fluorescence plate reader (Fluostar Omega, BMG labtech) and the percentage of cell viability determined as a function of fluorescence intensity."}, "[3]": {"test_system": "primary human fibroblasts from patients with Leigh syndrome", "assay": "Oxidative stress-induced cell death (BSO) assay, Leigh patient fibroblasts", "format": "cell-based", "details": "Homo sapiens, in vitro fibroblast assays (Redox assay), fibroblast type not given, values match Leigh", "source_text": "as §1"}, "[4]": {"details": "male, human, in vivo, 7 days"}, "[5]": {"details": "male, human, in vivo", "procedure": "The changes from baseline (pre-dose assessment on Day 1) for body weight, physical examinations, vital signs, ECG-variables and clinical laboratory variables were determined for each time point. Treatment-emergent laboratory and ECG abnormalities as well as adverse events were monitored throughout the study, up to 28 Days after the last study drug intake.\nThe goal of this post-hoc optimization study was to repeat the ECG assessment with an highly automated computer-assisted approach where in addition to the re-evaluation of standard intervals (PR, QRS and QT intervals), a set of parameters describing repolarization morphology were considered. The morphology indices were the TpTe interval (interval from the T wave apex to the end of the T wave), the TpTe/QT index (the ratio between the TpTe interval and the QT interval), Tamp (the amplitude in microvolt units of the T wave) and TSym (an index of repolarization morphology based on the symmetry of the T wave).\nECGs were digitally recorded using a Schiller AT104 ECG machine (500 Hz, 1 μV). Cardiac interval measurements were performed on the Global Superimposed Median Beat (GSMB), a methodology that allows measurements that consider each of the 12 individual median beats. This measurement methodology ensures that the PR, QRS, and QT interval are measured from the earliest onset in any lead to the latest deflection in any lead. Cardiologist overview of the computer-based measurements is based on the superimposed (overlapped) display of the individual median beats, to assure measurements are performed at the earliest onset of any viable lead to the latest offset of any viable lead.\nThe RR interval used for heart-rate correction of the QT interval (QTcB) was based on all the beats in the ten second recording. […]\nFor the pre-dose (baseline) ECGs, all parameters per time point were calculated as the averages of the triplicate ECGs. […]\nThe over-reading cardiologist provided a clinical interpretation for each ECG at each time point. […]"}, "[6]": {"assay": "Phospholipidosis assessment in MAD study (urinary di-22:6-BMP, electron microscopy of peripheral leucocytes)", "procedure": "Therefore, the presence of phospholipidosis was determined by the concentration of di-docosahexaenoyl (22:6)-bis(monoacylglycerol) phosphate (di-22:6-BMP) in a midstream urine sample and by electron microscopy of peripheral leucocytes at Day 1 and 7 in the MAD study (Pospischil A. et al, Exp. Toxicol Pathol 2010, 62:567-571)."}, "[7]": {"details": "male, human, in vivo, 28 days"}, "[8]": {"target": "PgP efflux pump (Homo sapiens, UniProt P08183)", "sequence (P08183 whole entry)": "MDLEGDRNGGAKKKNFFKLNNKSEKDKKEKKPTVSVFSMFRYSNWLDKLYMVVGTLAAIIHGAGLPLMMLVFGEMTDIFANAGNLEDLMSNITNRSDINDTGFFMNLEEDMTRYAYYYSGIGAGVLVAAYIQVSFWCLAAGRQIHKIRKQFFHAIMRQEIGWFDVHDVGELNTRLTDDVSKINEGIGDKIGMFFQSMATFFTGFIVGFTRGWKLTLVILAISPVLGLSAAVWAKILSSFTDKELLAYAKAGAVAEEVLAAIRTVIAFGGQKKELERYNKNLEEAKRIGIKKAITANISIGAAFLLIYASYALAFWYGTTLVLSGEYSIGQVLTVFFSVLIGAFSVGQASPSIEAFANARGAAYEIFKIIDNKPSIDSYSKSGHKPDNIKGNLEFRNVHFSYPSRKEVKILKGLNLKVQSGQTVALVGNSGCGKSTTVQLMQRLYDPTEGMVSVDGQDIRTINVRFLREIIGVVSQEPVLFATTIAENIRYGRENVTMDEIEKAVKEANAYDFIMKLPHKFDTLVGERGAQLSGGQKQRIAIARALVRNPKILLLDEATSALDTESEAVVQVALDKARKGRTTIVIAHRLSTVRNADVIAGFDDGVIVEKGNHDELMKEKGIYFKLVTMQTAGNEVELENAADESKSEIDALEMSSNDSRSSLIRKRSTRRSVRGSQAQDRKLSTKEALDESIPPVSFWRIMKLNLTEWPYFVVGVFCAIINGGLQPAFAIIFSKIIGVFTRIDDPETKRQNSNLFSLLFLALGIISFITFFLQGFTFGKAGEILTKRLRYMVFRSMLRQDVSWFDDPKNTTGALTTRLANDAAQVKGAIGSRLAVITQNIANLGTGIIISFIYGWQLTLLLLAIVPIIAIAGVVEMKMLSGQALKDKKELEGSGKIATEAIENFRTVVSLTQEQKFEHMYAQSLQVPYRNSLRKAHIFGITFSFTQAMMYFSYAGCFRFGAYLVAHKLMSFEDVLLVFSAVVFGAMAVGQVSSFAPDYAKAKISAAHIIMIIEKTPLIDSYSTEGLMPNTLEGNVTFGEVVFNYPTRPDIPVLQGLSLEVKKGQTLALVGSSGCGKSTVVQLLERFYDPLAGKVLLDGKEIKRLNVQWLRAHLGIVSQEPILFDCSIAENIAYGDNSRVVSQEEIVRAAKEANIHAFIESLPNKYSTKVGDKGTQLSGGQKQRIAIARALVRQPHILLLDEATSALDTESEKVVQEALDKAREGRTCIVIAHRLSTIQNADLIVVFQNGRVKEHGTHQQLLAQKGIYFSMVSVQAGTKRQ", "assay": "In vitro efflux", "format": "in vitro ADME"}}, "note": "pEC50: −log10 of the molar value. Read-outs that look alike come from different tables or passages of the source."}
{"smiles": "Cc1c(C)c2c(c(C)c1O)CC[C@@](C)(C(=O)N[C@@H]1CCCNC1)O2.Cl", "note": "[KH176, (S)-6-hydroxy-2,5,7,8-tetramethyl-N-((R)-piperidin-3-yl)chroman-2-carboxamide hydrochloride]", "values": [{"measurement": "metabolism", "setting": "[1]", "result": "metabolized by CYP3A4"}, {"measurement": "pEC50", "setting": "[2]", "result": 6.74}, {"measurement": "pEC50", "setting": "[3]; read-out: EC50", "result": 6.74}, {"measurement": "EC50", "setting": "[3]; read-out: EC50 expressed", "result": "~0.06", "unit": "µg/mL"}, {"measurement": "AEs rated mild in severity", "setting": "[4]", "result": 27}, {"measurement": "moderate AEs", "setting": "[4]", "result": 2}, {"measurement": "subjects reporting AEs", "setting": "[4]", "result": 10, "unit": "subjects"}, {"measurement": "KH176 exposure with no significant prolongation of the TpTe interval compared to placebo", "setting": "[5]", "result": "lower than 500 ng/ml"}, {"measurement": "plasma concentrations at which effects on repolarization seem to start", "setting": "[5]", "result": "500 to 1000", "unit": "ng/mL"}, {"measurement": "QTcF, largest median baseline increase", "setting": "[5]; 1 h", "result": 46.8, "unit": "ms"}, {"measurement": "di-22:6-BMP in urine, change from Day 1 to Day 7", "setting": "[6]; MAD group III (100 mg BID)", "result": "0.74-2.50 ng/mg creatinine"}, {"measurement": "di-22:6-BMP in urine, change from Day 1 to Day 7", "setting": "[6]; MAD group IV (200 mg BID)", "result": "−1.44-1.32 ng/mg creatinine"}, {"measurement": "di-22:6-BMP in urine, change from Day 1 to Day 7", "setting": "[6]; MAD group V (400 mg BID)", "result": "−0.69-1.46 ng/mg creatinine"}, {"measurement": "prevalence of phospholipidosis in granulocytes or monocytes by electron microscopy", "setting": "[6]; in vivo", "result": "No increased prevalence"}, {"measurement": "AEs rated mild in severity", "setting": "[7]", "result": 35}, {"measurement": "AEs reported by subjects in the highest dose group", "setting": "[7]", "result": 28}, {"measurement": "moderate AEs", "setting": "[7]", "result": 6}, {"measurement": "severe AEs", "setting": "[7]", "result": 2}, {"measurement": "subjects reporting AEs", "setting": "[7]", "result": 14, "unit": "subjects"}, {"measurement": "total adverse events (AEs) reported", "setting": "[7]", "result": 43}, {"measurement": "efflux / excretion", "setting": "[8]", "result": "excreted by the PgP efflux pump"}]}
